Here are results for one substance from patent US8691764B2, “Inhibitors of NF-κB activity” (The Research Foundation for the State University of New York, priority 2007, dated 2014).

In assay [1] the test system is annexin 1. Put plainly: Induction of annexin 1 in HT-29 cells, Western blot. The class given is cell-based, human. As to the method: The human pancreatic cancer cell line, BxPC-3, or the colon cancer cell line HT-29, both from ATCC (Manassas, Va.) were maintained and grown in RPMI 1640 or McCoy's 5A medium (Cellgro) supplemented with 10% fetal bovine serum (HyClone) and 1% penicillin/streptomycin (Cellgro) in a humidified incubator at 37° C. and 5% CO2.
For the study of induction of annexin 1 by anti-inflammatory agents, the cells were incubated with either NO-ASA or Dex for 3 h. The cell fractions were obtained as described by Andrews and Faller (N. C. Andrews and D. V. Faller, Nucleic Acids Res. 19:2499 (1991)) with modification. Briefly, the cells were pelleted after treatment and washed three times with PBS. The cell pellets were resuspended in ice cold buffer A (10 mM HEPES, pH 7.9, 10 mM KCl, 1.5 mM MgCI2, 0.5 mM DTT, 0.5 mM PMSF) with protease inhibitor cocktail (Sigma) and incubated on ice for 15 min with occasional mixing by gently tapping the tube. The cell lysates were centrifuged up to 5000 rpm for three times. The supernatants were collected as cytoplasmic extracts. Nuclear pellets were washed with buffer A and resuspended in buffer C (20 mM HEPES, pH 7.9, 450 mM NaCl, 1.5 mM MgCI2, 0.2 mM EDTA, 0.5 mM DTT, 0.5 mM PMSF, 25% Glycerol) with protease inhibitor cocktail (Sigma) and incubated on ice for 30 min with occasional mixing to extract nuclear proteins. […]

The test system of assay [2] is NF-κB. In words: EMSA of NF-κB binding to κB probe, nuclear extract of treated BxPC-3 cells. Format: cell-based, human. To be noted: BxPC-3 nuclear extract, 3 h. On the procedure:
The gel shift assays were carried out according to the manufacturer's protocol (Panomics). Nuclear proteins (10 μg) from each sample were mixed with 10 ng biotinylated p65 double-stranded oligonucleotide probes (5′-[…]-3′ and its complement) (SEQ ID NO:9) in the presence of 1 μg Poly(I/C) DNA. The mixture was incubated at room temperature for 30 min. The binding complex was then resolved using a 6% polyacrylamide/glycerol gel in 0.5% Tris-borate-EDTA, transferred onto a nylon membrane, and fixed on the membrane by UV cross-linking The biotin-labeled probe was detected with streptavidin-horseradish peroxidase. Co-immunoprecipitation was performed as follows: about 500 μg of cell extracts were incubated overnight with 5 μg of agarose-conjugated anti-p65 (Santa Cruz Biotechnology) or anti-annexin 1 antibody (Santa Cruz, Calif.). The precipitate was washed five times with washing buffer (Santa Cruz Biotechnology), dissolved in 2× Laemmli buffer, boiled, and separated by SDS-PAGE and detected by Western blot analysis using ECL™ (Amersham Biosciences) as described above. Control experiments were performed by using rabbit IgG for p65 and mouse IgG2b for annexin 1, respectively (Santa Cruz Biotechnology). […]
On the technique in general: A gel shift assay detects complexes by their altered migration in electrophoresis.

Assay [3] deals with annexin 1. Put plainly: Annexin 1 levels in small intestine epithelial cells of treated Min and wild-type mice. Format: in vivo. The following applies: NO-ASA 100 mg/kg or Dex 10 mg/kg daily for 7 days. As to the method:
(§1) To assess whether these changes occur in vivo, the inventors studied isolated small intestine epithelial cells from Min mice and the corresponding wild type mice C57BL/6J (of which the Min mice are a congenic derivative) treated with NO-ASA 100 mg/kg or Dex 10 mg/kg daily for 7 days. Min (multiple intestinal neoplasia), a mutant allele of the murine APC (adenomatous polyposis coli) locus, encodes a nonsense mutation at codon 850. Heterozygous Min mutants spontaneously develop tumors in the intestine and represent a model of intestinal carcinogenesis (M. Lipkin et al., Ann. N.Y. Acad. Sci. 889:14-19 (1999); A. Moser, H. Pitot, W. Dove, Science 247:322-324 (1990)). The levels of annexin 1 were increased in both Min and wild-type mice treated with either NO-ASA or Dex (FIG. 7A and FIG. 8A). The induction of annexin 1 by NO-ASA or Dex was accompanied by the inhibition of NF-κB activity (FIGS. 7B and 8B).
(§2) A mouse model of multiple intestinal neoplasia, the Min mice, and the congenic parent wild-type mice were used to test the in vivo action of NO-ASA in the induction of annexin 1. Both wild-type and Min mice were treated for 7 days with vehicle or NO-ASA 100 mg/kg. After 7 days of treatment, the mice were sacrificed and the epithelial cells were evaluated as in Example 6 by confocal microscopy.

The subject of assay [4] is NF-κB. In words: NF-κB activity in treated Min and wild-type mice. The class given is in vivo. To be noted: NO-ASA 100 mg/kg or Dex 10 mg/kg daily for 7 days. On the procedure: as §1, §2
Assay [5] concerns pancreatic cancer. The following applies: animal tumor model; cited from earlier work.

As for nitric oxide-donating aspirin [NO-ASA], the “expression of annexin 1” value in assay [1] is listed as “induced”. Also, the “binding of NF-κB to the DNA probe (EMSA)” value in assay [2] is “inhibited the binding of NF-κB to the DNA probe in a concentration-dependent manner”. Further, the “binding of NF-κB to the DNA probe (EMSA) at 20 μM” value in assay [2] (20 μM NO-ASA) is on record as “substantial suppression of binding”. For the same substance, the “levels of annexin 1” value in assay [3] (Min mice) and in assay [3] (wild-type mice) was “increased” throughout. Besides, the NF-κB activity entry in assay [4] (Min mice) and in assay [4] (wild-type mice) was “inhibited NF-κB activity” in each case. In addition, in assay [5], the “prevention of pancreatic cancer” value is “almost completely prevents pancreatic cancer”.
